In brackets after ≈: the same amount, converted by molar mass. Activity calls are given as the source filed them. No cut-off for these calls is given here.
How the values were obtained:
[1] = target: T1, Oxysterols receptor LXR-alpha (Homo sapiens, UniProt Q13133); experiment: Agonist activity at LXRalpha ligand binding domain by FRET based SRC1 recruitment assay
T1 sequence (Q13133 whole entry): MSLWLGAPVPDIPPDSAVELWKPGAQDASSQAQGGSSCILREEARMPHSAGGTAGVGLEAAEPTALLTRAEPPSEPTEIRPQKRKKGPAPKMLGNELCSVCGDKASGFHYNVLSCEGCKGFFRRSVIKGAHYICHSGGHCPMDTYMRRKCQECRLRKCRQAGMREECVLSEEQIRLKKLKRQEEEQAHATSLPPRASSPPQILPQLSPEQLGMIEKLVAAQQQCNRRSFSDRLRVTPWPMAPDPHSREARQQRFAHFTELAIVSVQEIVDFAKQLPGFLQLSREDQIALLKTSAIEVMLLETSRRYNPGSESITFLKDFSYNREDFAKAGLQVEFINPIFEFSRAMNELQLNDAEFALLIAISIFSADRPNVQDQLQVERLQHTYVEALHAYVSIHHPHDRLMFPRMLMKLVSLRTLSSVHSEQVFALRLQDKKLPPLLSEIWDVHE

[2] = target: T1, Oxysterols receptor LXR-alpha; experiment: Agonist activity at human LXRalpha expressed in human SH-SY5Y cells co-transfected with Gal4-LBD after 24 hrs by luciferase reporter gene assay; assay type: functional, cell-based
[3] = target: T2, Oxysterols receptor LXR-beta (Homo sapiens, UniProt P55055); experiment: Agonist activity at LXRbeta ligand binding domain by FRET based SRC1 recruitment assay
T2 sequence (P55055 whole entry): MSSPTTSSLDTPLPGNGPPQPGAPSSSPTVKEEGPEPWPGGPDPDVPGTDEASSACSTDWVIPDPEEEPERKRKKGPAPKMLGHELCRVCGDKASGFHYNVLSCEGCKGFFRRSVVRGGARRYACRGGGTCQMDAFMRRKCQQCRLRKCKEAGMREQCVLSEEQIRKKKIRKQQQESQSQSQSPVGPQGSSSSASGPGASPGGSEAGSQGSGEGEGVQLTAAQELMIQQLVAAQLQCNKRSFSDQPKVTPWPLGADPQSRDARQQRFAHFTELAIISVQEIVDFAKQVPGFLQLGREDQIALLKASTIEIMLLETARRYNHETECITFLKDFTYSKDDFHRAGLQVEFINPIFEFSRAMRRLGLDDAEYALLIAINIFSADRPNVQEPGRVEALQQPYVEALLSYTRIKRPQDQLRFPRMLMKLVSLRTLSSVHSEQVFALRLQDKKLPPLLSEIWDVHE

[4] = target: T2, Oxysterols receptor LXR-beta; experiment: Agonist activity at human LXRbeta expressed in human SH-SY5Y cells co-transfected with Gal4-LBD after 24 hrs by luciferase reporter gene assay; assay type: functional, cell-based
[5] = Permeability across human Caco-2 cell membrane; assay type: ADME, cell-based; details: read-out: permeability
Mus musculus [6] = experiment: Upregulation of ABCA1 mRNA level in mouse brain homogenates at 30 umol/kg, po daily once after 3 days relative to control; assay type: functional
[7] = Bioavailability in rat; assay type: ADME, organism-based; details: in vivo
Rattus norvegicus = experiment: Volume of distribution in po dosed rat; assay type: ADME, organism-based; details: in vivo
[8] = Solubility in 0.1 M phosphate buffer at pH 7.4 at 100 uM after 24 hrs by UV-TIC; assay type: physicochemical
[9] = target: T3, Oxysterols receptor LXR-alpha (Homo sapiens) (UniProt Q13133); experiment: Agonist activity at human LXRalpha expressed in human U2OS cells co-transfected with Gal4-LBD after 24 hrs by luciferase reporter gene assay; assay type: functional, cell-based
T3 sequence (whole entry): T1 sequence (Q13133 whole entry)

Mus musculus [10] = experiment: Upregulation of ABCG1 mRNA level in mouse brain homogenates at 30 umol/kg, po daily once after 3 days relative to control; assay type: functional
[11] = target: T4, Oxysterols receptor LXR-beta (Homo sapiens) (UniProt P55055); experiment: Agonist activity at human LXRbeta expressed in human U2OS cells co-transfected with Gal4-LBD after 24 hrs by luciferase reporter gene assay; assay type: functional, cell-based
T4 sequence (whole entry): T2 sequence (P55055 whole entry)

[12] = Clearance in po dosed rat; assay type: ADME, organism-based; details: in vivo
Mus musculus [13] = experiment: Upregulation of SREBP-1c mRNA level in mouse liver at 30 umol/kg, po daily once after 3 days relative to control; assay type: functional
Mus musculus [14] = experiment: Upregulation of SREBP-1c mRNA level in mouse liver at 1.0 umol/kg, po daily once after 3 days relative to control; assay type: functional
[15] = Half life in po dosed rat; assay type: ADME, organism-based; details: in vivo

Row | Compound | EC50 [1] [nM] | EC50 [2] [nM] | EC50 [3] [nM] | EC50 [4] [nM] | other results
1 | COC(=O)c1ccc(S(=O)(=O)N(C)c2ccc(NC(=O)C(C)(O)C(F)(F)F)c(Cl)c2)cc1 (stereo not drawn) | 3100 | 3610 | 2320 | 3810 | –
2 | C[C@H](CC[C@@H]1OC1(C)C)[C@H]1CC[C@H]2[C@@H]3CC=C4C[C@@H](O)CC[C@]4(C)[C@H]3CC[C@]12C [24(S),25-EPOXYCHOLESTEROL] | 280 | – | 286 | 400 | –
3 | COC(=O)CCc1ccc(S(=O)(=O)N(C)c2ccc(NC(=O)C(C)(O)C(F)(F)F)c(Cl)c2)cc1 (stereo not drawn) | 3500 | > 30000 | 3500 | > 30000 | –
4 | O=C(O)Cc1cccc(OCCCN(Cc2cccc(C(F)(F)F)c2Cl)CC(c2ccccc2)c2ccccc2)c1 | 280 | 310 | 78 | 130 | –
5 | CC(O)(C(=O)Nc1ccc(N(Cc2ccccc2)S(=O)(=O)c2ccccc2Cl)cc1Cl)C(F)(F)F (stereo not drawn) | > 100000 | > 30000 | 880 | > 30000 | –
6 | C=CCN(c1ccc(NC(=O)C(C)(O)C(F)(F)F)c(Cl)c1)S(=O)(=O)c1ccccc1Cl (stereo not drawn) | 470 | > 30000 | 580 | > 30000 | –
7 | CN(c1ccc(NC(=O)C(C)(O)C(F)(F)F)c(Cl)c1)S(=O)(=O)c1ccc(C(=O)O)cc1 (stereo not drawn) | > 100000 | > 30000 | > 100000 | > 30000 | –
8 | CCN(c1ccc(NC(=O)C(C)(O)C(F)(F)F)c(Cl)c1)S(=O)(=O)c1ccccc1Cl (stereo not drawn) | 1000 | 8500 | 790 | 7500 | –

The next lines start with results.

Row | EC50 [1] [nM] | EC50 [2] [nM] | EC50 [3] [nM] | EC50 [4] [nM] | Compound | other results
9 | > 100000 | > 30000 | > 100000 | > 30000 | CN(c1ccc(NC(=O)C(C)(O)C(F)(F)F)c(Cl)c1)S(=O)(=O)c1ccc(CCC(=O)O)cc1 (stereo not drawn) | –
10 | 3400 | 5000 | 2600 | 2700 | CN(c1ccc(NC(=O)C(C)(O)C(F)(F)F)c(Cl)c1)S(=O)(=O)c1ccc(C#N)cc1 (stereo not drawn) | Papp [5]: 28 ×10⁻⁶ cm/s; fold change (FC) (Mus musculus [6]): 1.25; bioavailability [7]: 39%; Vd (Rattus norvegicus): 4.1 L/kg; solubility at 24 h, 100 µM [8]: 61 µM (≈ 28.2 µg/mL); Activity [9]: inactive; fold change (FC) (Mus musculus [10]): 1.3; Activity [11]: inactive; CL/F [12]: 24.6 mL/min/kg; fold change (FC) (Mus musculus [13]): 1.3; fold change (FC) (Mus musculus [14]): 3.6; half-life [15]: 4.4 h
11 | 1080 | > 30000 | 940 | > 30000 | CC(O)(C(=O)Nc1ccc(N(CC2CC2)S(=O)(=O)c2ccccc2Cl)cc1Cl)C(F)(F)F (stereo not drawn) | –
12 | 1970 | 5000 | 1500 | 1590 | Cc1ccc(S(=O)(=O)N(C)c2ccc(NC(=O)[C@](C)(O)C(F)(F)F)c(Cl)c2)cc1 | –
13 | – | 1820 | 626 | 813 | CN(c1ccc(NC(=O)[C@](C)(O)C(F)(F)F)c(Cl)c1)S(=O)(=O)c1ccccc1Cl | Activity [9]: inactive; Activity [11]: inactive
14 | 3300 | 5000 | 1900 | 959 | CN(c1ccc(NC(=O)[C@](C)(O)C(F)(F)F)c(Cl)c1)S(=O)(=O)c1ccccc1 | –
